Data from patent US9434760B2, “Prolinamide derivatives as thrombin inhibitors, preparation method and application thereof” (SHANGHAI INSTITUTE OF PHARMACEUTICAL INDUSTRY, priority 2010, dated 2016).
Where a name gives a salt, the structure may show the parent alone.

The molecules below were run against T1, lyophilized bovine thrombin standard substance purified from bovine blood (Bos taurus, UniProt P00735) (assay: Test for antithrombin activity (chromogenic substrate S2238)). Conditions: not given.
T1 construct: lyophilized bovine thrombin standard substance purified from bovine blood; from tissue; host or cells: bovine blood
Assay type: biochemical
Source text: Wherein ΔAs represents the rate of change in inhibited absorbance value, and ΔAc represents the rate of change in uninhibited absorbance values.
Wherein h represents Hill coefficient.

IC50 [nM]	Molecule
115	CC(C)CC(NS(=O)(=O)c1ccccc1)C(=O)N1CCC[C@H]1C(=O)NCc1ccc(C(=N)N)cc1 (stereo partly drawn) [Example 2, N-benzenesulfonyl-D,L-leucyl-L-prolyl-[(4-amidinophenyl)methyl]amide acetate]
170	CC(C)C[C@@H](NS(=O)(=O)Cc1ccccc1)C(=O)N1CCC[C@H]1C(=O)NCc1ccc(C(=N)N)cc1 [Example 21, N-benzylsulfony-D-leucyl-L-prolyl-[(4-amidinophenyl)methyl]amide hydrochloride]
69	N=C(N)c1ccc(CNC(=O)[C@@H]2CCN2C(=O)[C@H](NCC(=O)O)C2CCCCC2)cc1 [melagatran, reference compound]

Same assay, conditions: 0.15 U/ml bovine thrombin, incubation for 15 minutes, substrate S2238 (0.075 μM), absorbance at 405 nm during 4 minutes, room temperature; read-out: IC50

Molecule	IC50 [nM]
CC(C)CC(NC(=O)c1ccccc1)C(=O)N1CCC[C@H]1C(=O)NCc1ccc(C(=N)N)cc1 (mixture of isomers) [Example 6, N-benzoyl-D,L-leucyl-L-prolyl-[(4-amidinophenyl)methyl]amide acetate]	154
CC[C@H](C)[C@H](NC(=O)c1ccccc1)C(=O)N1CCC[C@H]1C(=O)NCc1ccc(C(=N)N)cc1 (mixture of isomers) [Example 12, N-benzoyl-D,L-isoleucyl-L-prolyl-[(4-amidinophenyl)methyl]amide acetate]	561
CC(C)C[C@@H](NS(=O)(=O)c1ccccc1)C(=O)N1CCC[C@H]1C(=O)NCc1ccc(C(=N)NC(=O)OCc2ccccc2)cc1 [Example 18]	30
CC(C)C[C@@H](NS(=O)(=O)c1ccccc1)C(=O)N1CCC[C@H]1C(=O)NCc1ccc(C(=N)N)cc1 [Example 19, N-benzenesulfony-D-leucyl-L-prolyl-[(4-amidinophenyl)methyl]amide hydrochloride]	12
N-benzenesulfonyl-D-leucyl-L-prolyl-[1-(aminoiminomethyl)-pyrrol-3-yl]methyl amide hydrochloride [Example 27]	8
N-benzylsulfonyl-D,L-leucyl-L-prolyl-{[4-(N′-hydroxyl) amidinophenyl]methyl}amide acetate [Example 4]	47

Results, then the molecule that gave them:

IC50 [nM]	Molecule
246	CC(C)C[C@@H](NS(=O)(=O)Cc1ccccc1)C(=O)N1CCC[C@H]1C(=O)NCc1ccc(C(=N)NC(=O)OCc2ccccc2)cc1 [Example 20]
55	CC(C)C[C@@H](NC(=O)c1ccccc1)C(=O)N1CCC[C@H]1C(=O)NCc1ccc(C(=N)N)cc1 [Example 22, N-benzoyl-D-leucyl-L-prolyl-[(4-amidinophenyl)methyl]amide hydrochloride]
472	CC(C)C[C@@H](NC(=O)Cc1ccccc1)C(=O)N1CCC[C@H]1C(=O)NCc1ccc(C(=N)N)cc1 [Example 23, N-phenylacetyl-D-leucyl-L-prolyl-[(4-amidinophenyl)methyl]amide hydrochloride]
561	CC(C)C[C@@H](NCC(=O)O)C(=O)N1CCC[C@H]1C(=O)NCc1ccc(C(=N)N)cc1 [Example 24, N-carboxylmethyl-D-leucyl-L-prolyl-[(4-amidinophenyl)methyl]amide hydrochloride]
